Results on seven molecules are retold here after US6586478B2, “Methods and compositions for improving sleep” (Cellegy Canada, priority 2000, dated 2003).

The test system of data set [1] is sleep disorders including PLMS. Description: Example 1, Subject 1: person with sleep disorders including PLMS. It is filed as in vivo, human. The settings on record: Subject 1, history before the GTN patch. How it is done: The subject was a person with a history of sleep disorders including PLMS for at least 4 years. Over this period the subject had five visits to a sleep laboratory, which confirmed their diagnosis of PLMS, and through which various treatments were devised. These included drug therapies with PAXIL/WELLBUTRIN, CLOMIPRAMINE, IMOVANE, DESIPPAMINE, ZOLOFT, TEMAZEPAM, TRYPTAN, and FLUVOXAMINE.
At this point, the subject was administered a 1.65 cm^2 GTN patch as described above in reference to Table 4. The patch was applied just before retiring at night. This was repeated for three consecutive nights. […] On the fourth night, the subject applied a 1.1 cm^2 GTN patch, and on the fifth night, a 0.825 cm^2 GTN patch.

Data set [2] in a line: Plasma levels of nitroglycerin delivered from transdermal patches. Format: in vivo. The procedure:
(§1) 3M MINITRAN transdermal nitroglycerin patches of 10 cm^2 and 20 cm^2 areas deliver plasma levels of 102 pg/mL and between 129 pg/mL and 310 pg/mL, respectively. The 3.3 cm^2 patch, with a total loading of 9 mg of nitroglycerin in each patch, has a mean rate of drug delivery of about […]. The two smaller patches (1.65 cm^2 and 0.825 cm^2) used in the studies described herein had areas of one half and one fourth the 3.33 cm^2 patch. Based on the ratios of patch surface area and assuming linearity in the rates of drug delivery, the estimated rates of delivery and extrapolated values of plasma levels of nitroglycerin for the three low or microdose patches are given in Table 1.

Data set [3] in a line: Rate of drug delivery (release) from transdermal nitroglycerin patches. The settings on record: after 8 hours, 0.83 cm^2 patch. How it is done: as §1
Nitroglycerin for the treatment of RLS, PLMS and sleep symptoms was provided in single dose transdermal patches packaged in individual foil pouches. Each single dose transdermal patch has a surface area of 0.83 cm^2, contains 2.25 mg of nitroglycerin, and releases the nitroglycerin at a rate of 0.025 mg/hour (0.75 mg/cm^2/24 hours). After 8 hours 85% of the nitroglycerin remains entrained in the adhesive substrate of the transdermal patch.

`CN(C)CCCN1c2ccccc2CCc2ccc(Cl)cc21` [CLOMIPRAMINE]: in data set [1], the “success of earlier drug therapies in treating the symptoms of the sleep disorder” value (“success of earlier drug therapies” below) is reported as “None of the drug therapies were successful”. On to `CNCCCN1c2ccccc2CCc2ccccc21` [DESIPPAMINE], for which the “success of earlier drug therapies” value in data set [1] was “None of the drug therapies were successful”. On the same count and under the same terms, then `CN1C(=O)C(O)N=C(c2ccccc2)c2cc(Cl)ccc21` (centres unmarked) [TEMAZEPAM, temazepam], with “None of the drug therapies were successful”. For `O=[N+]([O-])OCC(CO[N+](=O)[O-])O[N+](=O)[O-]` [Nitroglycerin, nitroglycerin], the “Plasma Level” value in data set [2] (0.825 cm^2 patch, extrapolated from larger-size patches assuming linearity) was 9^3 pg/mL; in data set [2] (1.65 cm^2 patch, extrapolated from larger-size patches assuming linearity), 17^3 pg/mL; in data set [2] (3.33 cm^2 patch, extrapolated from larger-size patches assuming linearity), 34^3 pg/mL; in data set [2] (10 cm^2 patch), 102^1 pg/mL. Also, the “nitroglycerin remaining entrained in the adhesive substrate of the patch” value in data set [3] is on record as 85%. Turning to `CN[C@H]1CC[C@@H](c2ccc(Cl)c(Cl)c2)c2ccccc21` [ZOLOFT], in data set [1], the “success of earlier drug therapies” value was “None of the drug therapies were successful”. As to `CN1CCN(C(=O)OC2c3nccnc3C(=O)N2c2ccc(Cl)cn2)CC1` (centres unmarked) [IMOVANE], the “success of earlier drug therapies” value in data set [1] is “None of the drug therapies were successful”.

With `COCCCC/C(=N\OCCN)c1ccc(C(F)(F)F)cc1` [FLUVOXAMINE], the “success of earlier drug therapies” value in data set [1] is on record as “None of the drug therapies were successful”.
